One data set has as its target PI3kγ (Homo sapiens, UniProt P48736). Briefly: Fluorescent (HTRF) determination of PI3 kinase enzyme activity, PI3Kγ. The format is biochemical. As to conditions: for inhibition at 0.1 µM / % inhibition (PI3kγ) 100 nM: 100 nM (Examples 60-137); for inhibition at 0.3 µM: 300 nM (Examples 1-59); for % inhibition (PI3kγ) 100 nM: 0.1 µM. A digest of the protocol:
(§1)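 Compounds tested at 1 μM on α and β isoforms and at 0.3 or 0.1 μM on γ and δ, with percent inhibition from blank and enzyme controls, plus IC50 fits. Room-temperature reaction: 10 min enzyme–compound preincubation in MgCl2/DTT buffer with 1.38 μM PIP2, then 30 min after 400 μM ATP addition; PIP3 read by HTRF (665/620 nm).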
(In general: Time-resolved FRET reads energy transfer from a long-lived donor to a nearby acceptor.)

The target of a further data set is PI3kα (Homo sapiens, UniProt P42336). Briefly: Fluorescent (HTRF) determination of PI3 kinase enzyme activity, PI3Kα. The format is biochemical. A digest of the protocol:
as §1

For a further data set, the target named is PI3kβ (Homo sapiens, UniProt P42338). The experiment in a line: Fluorescent (HTRF) determination of PI3 kinase enzyme activity, PI3Kβ. The format is biochemical. A digest of the protocol: as §1
Sequence of PI3kβ (P42338 whole entry): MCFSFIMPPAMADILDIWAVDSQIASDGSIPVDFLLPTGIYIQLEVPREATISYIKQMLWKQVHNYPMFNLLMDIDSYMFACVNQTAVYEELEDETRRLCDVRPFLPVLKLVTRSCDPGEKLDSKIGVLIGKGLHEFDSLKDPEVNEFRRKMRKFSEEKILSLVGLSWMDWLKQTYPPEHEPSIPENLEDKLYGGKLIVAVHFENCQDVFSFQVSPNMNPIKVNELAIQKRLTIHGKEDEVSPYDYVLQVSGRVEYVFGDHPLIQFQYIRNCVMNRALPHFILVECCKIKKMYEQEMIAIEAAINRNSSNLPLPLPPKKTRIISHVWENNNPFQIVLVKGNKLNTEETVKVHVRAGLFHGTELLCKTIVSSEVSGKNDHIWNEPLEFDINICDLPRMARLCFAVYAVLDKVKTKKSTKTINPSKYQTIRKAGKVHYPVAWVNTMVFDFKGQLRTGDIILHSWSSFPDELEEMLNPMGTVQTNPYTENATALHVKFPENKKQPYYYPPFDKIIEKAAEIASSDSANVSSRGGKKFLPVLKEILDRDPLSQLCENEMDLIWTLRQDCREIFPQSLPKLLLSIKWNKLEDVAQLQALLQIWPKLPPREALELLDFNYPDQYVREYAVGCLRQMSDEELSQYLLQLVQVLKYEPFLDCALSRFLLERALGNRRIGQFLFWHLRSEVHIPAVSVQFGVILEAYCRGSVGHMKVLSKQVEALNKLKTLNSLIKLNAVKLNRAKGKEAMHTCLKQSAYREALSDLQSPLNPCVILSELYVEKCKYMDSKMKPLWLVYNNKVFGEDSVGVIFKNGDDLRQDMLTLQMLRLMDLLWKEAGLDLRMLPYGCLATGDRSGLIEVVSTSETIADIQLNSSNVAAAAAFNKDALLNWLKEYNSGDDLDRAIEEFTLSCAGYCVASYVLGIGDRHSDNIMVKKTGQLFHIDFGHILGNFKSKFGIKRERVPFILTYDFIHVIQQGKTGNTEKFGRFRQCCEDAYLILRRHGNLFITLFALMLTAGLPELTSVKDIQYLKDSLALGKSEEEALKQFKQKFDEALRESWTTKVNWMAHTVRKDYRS
Sequence of PI3kβ (P27986 whole entry partner): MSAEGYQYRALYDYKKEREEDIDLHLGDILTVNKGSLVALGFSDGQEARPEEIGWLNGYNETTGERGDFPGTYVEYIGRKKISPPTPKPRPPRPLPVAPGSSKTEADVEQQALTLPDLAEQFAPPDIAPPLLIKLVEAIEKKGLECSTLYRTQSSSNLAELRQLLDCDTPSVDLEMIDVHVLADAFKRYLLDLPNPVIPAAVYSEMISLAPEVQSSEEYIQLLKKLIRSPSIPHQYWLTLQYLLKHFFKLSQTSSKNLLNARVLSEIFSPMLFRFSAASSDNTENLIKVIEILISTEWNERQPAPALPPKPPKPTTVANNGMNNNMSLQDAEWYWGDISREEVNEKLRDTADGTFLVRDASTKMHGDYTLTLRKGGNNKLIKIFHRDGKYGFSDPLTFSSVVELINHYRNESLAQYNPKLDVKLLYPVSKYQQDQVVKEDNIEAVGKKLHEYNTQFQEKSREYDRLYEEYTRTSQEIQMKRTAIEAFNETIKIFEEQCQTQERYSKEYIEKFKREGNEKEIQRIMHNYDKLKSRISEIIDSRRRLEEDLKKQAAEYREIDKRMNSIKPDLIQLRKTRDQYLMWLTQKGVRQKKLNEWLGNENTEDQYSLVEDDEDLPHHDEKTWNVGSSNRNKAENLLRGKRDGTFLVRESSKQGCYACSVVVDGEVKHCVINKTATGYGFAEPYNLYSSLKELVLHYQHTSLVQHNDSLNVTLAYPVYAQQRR
Another data set deals with PI3kδ (Homo sapiens, UniProt O00329). The experiment in a line: Fluorescent (HTRF) determination of PI3 kinase enzyme activity, PI3Kδ. The format is biochemical. As to conditions: for inhibition at 0.1 µM / % inhibition (PI3kδ) 100 nM: 100 nM (Examples 60-137); for inhibition at 0.3 µM: 300 nM (Examples 1-59); for % inhibition (PI3kδ) 100 nM: 0.1 µM. A digest of the protocol: as §1
Sequence of PI3kδ (O00329 whole entry): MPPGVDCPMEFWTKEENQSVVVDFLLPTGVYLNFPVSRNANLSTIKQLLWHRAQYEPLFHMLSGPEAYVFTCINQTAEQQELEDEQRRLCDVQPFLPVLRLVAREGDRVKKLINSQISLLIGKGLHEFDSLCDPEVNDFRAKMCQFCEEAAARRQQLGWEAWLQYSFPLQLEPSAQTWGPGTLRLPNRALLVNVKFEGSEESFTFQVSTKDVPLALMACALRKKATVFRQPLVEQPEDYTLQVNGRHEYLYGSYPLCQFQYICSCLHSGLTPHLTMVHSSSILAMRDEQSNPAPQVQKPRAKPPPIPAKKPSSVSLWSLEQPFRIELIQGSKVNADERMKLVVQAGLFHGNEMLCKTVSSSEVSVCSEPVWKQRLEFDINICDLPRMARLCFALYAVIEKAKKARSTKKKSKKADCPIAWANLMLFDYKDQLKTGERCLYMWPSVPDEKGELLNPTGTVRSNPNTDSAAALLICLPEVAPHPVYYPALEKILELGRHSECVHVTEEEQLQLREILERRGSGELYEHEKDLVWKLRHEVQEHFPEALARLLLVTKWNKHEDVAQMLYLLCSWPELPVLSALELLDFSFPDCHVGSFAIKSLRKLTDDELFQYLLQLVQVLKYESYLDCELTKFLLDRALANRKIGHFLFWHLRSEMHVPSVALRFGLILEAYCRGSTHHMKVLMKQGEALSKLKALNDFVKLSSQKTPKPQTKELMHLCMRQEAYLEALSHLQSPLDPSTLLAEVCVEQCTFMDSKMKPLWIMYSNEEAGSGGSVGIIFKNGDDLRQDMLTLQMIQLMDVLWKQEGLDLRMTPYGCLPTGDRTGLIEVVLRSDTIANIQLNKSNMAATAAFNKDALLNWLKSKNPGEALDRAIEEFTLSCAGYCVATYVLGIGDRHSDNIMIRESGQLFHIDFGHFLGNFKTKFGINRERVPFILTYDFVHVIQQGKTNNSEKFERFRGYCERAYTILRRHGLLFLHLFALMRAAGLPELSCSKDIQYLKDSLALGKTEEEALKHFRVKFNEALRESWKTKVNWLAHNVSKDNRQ
Sequence of PI3kδ (P27986 whole entry partner): as the sequence (P27986 whole entry partner) above

Sequence of PI3kα (P42336 whole entry): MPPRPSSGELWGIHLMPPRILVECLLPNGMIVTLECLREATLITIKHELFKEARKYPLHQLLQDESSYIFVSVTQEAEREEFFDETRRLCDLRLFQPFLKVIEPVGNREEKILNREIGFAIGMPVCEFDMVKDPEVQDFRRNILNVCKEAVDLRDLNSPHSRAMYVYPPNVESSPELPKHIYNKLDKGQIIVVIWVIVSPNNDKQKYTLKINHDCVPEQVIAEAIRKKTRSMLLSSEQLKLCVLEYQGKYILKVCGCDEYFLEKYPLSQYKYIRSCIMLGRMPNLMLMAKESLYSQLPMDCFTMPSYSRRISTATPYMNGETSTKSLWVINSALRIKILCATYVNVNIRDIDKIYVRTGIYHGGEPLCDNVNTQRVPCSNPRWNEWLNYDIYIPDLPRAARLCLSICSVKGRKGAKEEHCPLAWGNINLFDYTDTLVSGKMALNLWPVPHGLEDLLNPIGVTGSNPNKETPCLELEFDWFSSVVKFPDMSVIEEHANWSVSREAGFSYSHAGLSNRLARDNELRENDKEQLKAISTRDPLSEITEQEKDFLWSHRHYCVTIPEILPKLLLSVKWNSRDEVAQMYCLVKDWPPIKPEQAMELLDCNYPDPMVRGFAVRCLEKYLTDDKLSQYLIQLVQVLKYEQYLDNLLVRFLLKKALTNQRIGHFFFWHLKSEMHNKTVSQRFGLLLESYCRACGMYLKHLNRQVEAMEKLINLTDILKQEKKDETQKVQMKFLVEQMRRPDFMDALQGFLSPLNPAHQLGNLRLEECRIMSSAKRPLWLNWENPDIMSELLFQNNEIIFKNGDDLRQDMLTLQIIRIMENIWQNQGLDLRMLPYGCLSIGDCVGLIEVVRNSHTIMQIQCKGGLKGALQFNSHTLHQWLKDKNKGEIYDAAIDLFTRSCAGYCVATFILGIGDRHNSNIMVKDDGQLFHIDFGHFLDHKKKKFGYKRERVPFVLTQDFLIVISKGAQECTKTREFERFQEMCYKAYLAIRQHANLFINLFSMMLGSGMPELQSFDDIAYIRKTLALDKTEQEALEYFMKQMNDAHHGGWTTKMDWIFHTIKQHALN
Sequence of PI3kα (P27986 whole entry partner): as the sequence (P27986 whole entry partner) above
Sequence of PI3kγ (P48736 whole entry, canonical isoform): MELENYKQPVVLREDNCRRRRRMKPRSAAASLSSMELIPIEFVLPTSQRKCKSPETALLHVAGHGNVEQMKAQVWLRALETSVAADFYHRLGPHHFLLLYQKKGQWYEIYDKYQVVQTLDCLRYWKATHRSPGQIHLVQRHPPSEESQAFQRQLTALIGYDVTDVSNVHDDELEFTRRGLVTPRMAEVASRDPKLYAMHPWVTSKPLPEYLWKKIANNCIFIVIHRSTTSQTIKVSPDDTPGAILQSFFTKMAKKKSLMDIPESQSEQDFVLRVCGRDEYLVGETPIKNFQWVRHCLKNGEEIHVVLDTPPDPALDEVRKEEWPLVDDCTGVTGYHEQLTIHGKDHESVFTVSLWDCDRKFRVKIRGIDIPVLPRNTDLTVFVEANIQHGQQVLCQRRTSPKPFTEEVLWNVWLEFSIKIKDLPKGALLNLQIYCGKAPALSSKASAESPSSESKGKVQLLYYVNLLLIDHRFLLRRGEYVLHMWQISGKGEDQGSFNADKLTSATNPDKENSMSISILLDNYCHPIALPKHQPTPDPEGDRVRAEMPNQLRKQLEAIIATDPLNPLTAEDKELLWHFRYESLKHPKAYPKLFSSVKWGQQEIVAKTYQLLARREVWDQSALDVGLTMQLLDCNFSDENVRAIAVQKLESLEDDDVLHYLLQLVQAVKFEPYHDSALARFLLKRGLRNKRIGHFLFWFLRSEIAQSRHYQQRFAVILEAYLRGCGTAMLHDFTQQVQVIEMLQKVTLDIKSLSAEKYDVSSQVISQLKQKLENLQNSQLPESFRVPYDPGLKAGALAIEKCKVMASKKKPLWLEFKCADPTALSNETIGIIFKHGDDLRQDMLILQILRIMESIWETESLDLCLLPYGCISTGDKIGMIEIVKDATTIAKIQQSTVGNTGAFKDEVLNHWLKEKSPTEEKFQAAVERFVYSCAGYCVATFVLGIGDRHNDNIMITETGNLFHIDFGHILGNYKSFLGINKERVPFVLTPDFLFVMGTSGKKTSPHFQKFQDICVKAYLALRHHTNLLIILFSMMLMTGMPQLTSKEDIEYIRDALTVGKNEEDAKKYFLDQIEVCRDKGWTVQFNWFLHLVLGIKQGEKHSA

Regarding `CC(c1oc2cccc(F)c2c(=O)c1-c1cccc(F)c1)n1nc(-c2ccc(N3CCOCC3)c(F)c2)c2c(N)ncnc21` (racemic) [Example 70, (R)/(S)-2-(1-(4-amino-3-(3-fluoro-4-morpholinophenyl)-1H-pyrazolo[3,4-d]pyrimidin-1-yl)ethyl)-5-fluoro-3-(3-fluorophenyl)-4H-chromen-4-one], the melting point (usually the temperature, or range, at which the solid turns liquid) is 243 to 246 °C. Also, the inhibition (commonly the relative decrease from the control value, in per cent) at 0.1 µM at PI3kγ lay in the range of 25 to 50%. For the same molecule, on PI3kα, the “% inhibition (PI3kα) 1 uM” value was “D (D=0 to 25%)”. The “% inhibition (PI3kβ) 1 uM” value at PI3kβ is recorded as “C (C=>25 to 50%)”. Moreover, on PI3kδ, the inhibition at 0.1 µM lay in the range of 25 to 50%.

The molecule `CC(c1oc2cccc(F)c2c(=O)c1-c1cccc(F)c1)n1nc(-c2ccc(-c3nnc(N)s3)cc2)c2c(N)ncnc21` (stereo not drawn) [Example 77, 2-(1-(4-amino-3-(4-(5-amino-1,3,4-thiadiazol-2-yl)phenyl)-1H-pyrazolo[3,4-d]pyrimidin-1-yl)ethyl)-5-fluoro-3-(3-fluorophenyl)-4H-chromen-4-one] showed a melting point of 202 to 205 °C. In addition, the inhibition at 0.1 µM against PI3kγ was in the range of 25 to 50%. Moreover, the inhibition at 1 µM against PI3kα was 25 to 50%. On PI3kβ, the inhibition at 1 µM fell in the range of 50 to 75%. Also, at PI3kδ, the IC50 (in general, the concentration that inhibits the measured activity by half) fell in the range of 50 to 100 nM and the inhibition at 0.1 µM lay within 50 to 75%.

For `CC(Nc1ncnc2[nH]cnc12)c1oc2cccc(F)c2c(=O)c1-c1ccccc1F` (stereo not drawn) [Example 131, 2-(1-(9H-purin-6-ylamino)ethyl)-5-fluoro-3-(2-fluorophenyl)-4H-chromen-4-one], the melting point was 203 to 205 °C. Also, the inhibition at 0.1 µM against PI3kγ fell in the range of 25 to 50%. For the same molecule, the inhibition at 1 µM against PI3kα was 25 to 50%. The inhibition at 1 µM at PI3kβ lay within 0 to 25%. This molecule also displayed an inhibition at 0.1 µM against PI3kδ of 25 to 50%.

For the molecule `CC(C)Oc1ncc(-c2nn(C(C)c3oc4cccc(F)c4c(=O)c3-c3cccc(F)c3)c3ncnc(N)c23)cn1` (stereo not drawn) [Example 58, 2-(1-(4-amino-3-(2-isopropoxypyrimidin-5-yl)-1H-pyrazolo[3,4-d]pyrimidin-1-yl)ethyl)-5-fluoro-3-(3-fluorophenyl)-4H-chromen-4-one], the melting point is 230 to 232 °C. This molecule also gave an inhibition at 0.3 µM against PI3kγ of 25 to 50%. This molecule showed an inhibition at 1 µM at PI3kα of 0 to 25%. Also, the inhibition at 1 µM against PI3kβ fell in the range of 50 to 75%. The inhibition at 0.3 µM on PI3kδ lay within 50 to 75%.

As to `CC(C)C(=O)Nc1ccc(-c2nn(C(C)c3oc4cccc(F)c4c(=O)c3-c3cccc(F)c3)c3ncnc(N)c23)cc1F` (stereo not drawn) [Example 81, N-(4-(4-amino-1-(1-(5-fluoro-3-(3-fluorophenyl)-4-oxo-4H-chromen-2-yl)ethyl)-1H-pyrazolo[3,4-d]pyrimidin-3-yl)-2-fluorophenyl)isobutyramide], the melting point fell in the range of 249 to 252 °C. For the same molecule, the inhibition at 0.1 µM against PI3kγ lay within 25 to 50%. The molecule further came in with an inhibition at 1 µM at PI3kα of 25 to 50%. In addition, the inhibition at 1 µM against PI3kβ lay within 25 to 50%. On PI3kδ, this molecule displayed an inhibition at 0.1 µM of 50 to 75%.

Molecule `Cc1nn(C)c2cc(-c3nn(C(C)c4oc5cccc(F)c5c(=O)c4-c4cccc(F)c4)c4ncnc(N)c34)ccc12` (stereo not drawn) [Example 79, 2-(1-(4-amino-3-(1,3-dimethyl-1H-indazol-6-yl)-1H-pyrazolo[3,4-d]pyrimidin-1-yl)ethyl)-5-fluoro-3-(3-fluorophenyl)-4H-chromen-4-one] came in with a melting point of 220 to 224 °C. In addition, at PI3kγ, the inhibition at 0.1 µM was 25 to 50%. The inhibition at 1 µM against PI3kα was in the range of 25 to 50%. On PI3kβ, this molecule came in with an inhibition at 1 µM of 25 to 50%. Besides, the inhibition at 0.1 µM at PI3kδ was in the range of 0 to 25%.

Consider `CC(c1oc2cccc(F)c2c(=O)c1-c1cccc(F)c1)n1nc(-c2ccc(N3CCOCC3)c(F)c2)c2c(N)ncnc21` (single isomer, unassigned) [Example 59], for which the melting point was in the range of 242 to 245 °C. At PI3kγ, the IC50 was ≤ 50 nM. Also, the IC50 against PI3kα (numeric values) was > 10000 nM. On PI3kβ, the IC50 was > 500 nM and the inhibition at 1 µM was in the range of 25 to 50%. Also, on PI3kδ, the IC50 was in the range of 100 to 300 nM.

`CC(c1oc2cccc(F)c2c(=O)c1-c1cccc(F)c1)n1nc(C#CCO)c2c(N)ncnc21` (stereo not drawn) [Example 66, 2-(1-(4-amino-3-(3-hydroxyprop-1-ynyl)-1H-pyrazolo[3,4-d]pyrimidin-1-yl)ethyl)-5-fluoro-3-(3-fluorophenyl)-4H-chromen-4-one] came in with a melting point of 220 to 222 °C. Also, the inhibition at 0.1 µM against PI3kγ was 25 to 50%. On PI3kα, this molecule had an inhibition at 1 µM of 25 to 50%. The inhibition at 1 µM at PI3kβ was 25 to 50%. At PI3kδ, this molecule showed an inhibition at 0.1 µM of 25 to 50%.

In turn, `Cc1c2ccc(-c3nn(C(C)c4oc5cccc(F)c5c(=O)c4-c4cccc(F)c4)c4ncnc(N)c34)cc2nn1C` (stereo not drawn) [Example 80, 2-(1-(4-amino-3-(2,3-dimethyl-2H-indazol-6-yl)-1H-pyrazolo[3,4-d]pyrimidin-1-yl)ethyl)-5-fluoro-3-(3-fluorophenyl)-4H-chromen-4-one] showed a melting point of 232 to 235 °C. Moreover, the inhibition at 0.1 µM at PI3kγ lay in the range of 25 to 50%. On PI3kα, this molecule registered an inhibition at 1 µM of 50 to 75%. Moreover, at PI3kβ, the inhibition at 1 µM was in the range of 25 to 50%. The molecule also yielded an inhibition at 0.1 µM against PI3kδ of 50 to 75%.

Turning to `CNc1nnc(-c2ccc(-c3nn(C(C)c4oc5cccc(F)c5c(=O)c4-c4cccc(F)c4)c4ncnc(N)c34)cc2)s1` (stereo not drawn) [Example 54, 2-(1-(4-amino-3-(4-(5-(methylamino)-1,3,4-thiadiazol-2-yl)phenyl)-1H-pyrazolo[3,4-d]pyrimidin-1-yl)ethyl)-5-fluoro-3-(3-fluorophenyl)-4H-chromen-4-one], the melting point fell in the range of 199 to 201 °C. Further, the inhibition at 0.3 µM against PI3kγ is 50 to 75%. This molecule also came in with an inhibition at 1 µM at PI3kα of 25 to 50%. This molecule also showed an inhibition at 1 µM against PI3kβ of 25 to 50%. Besides, at PI3kδ, the inhibition at 0.3 µM was in the range of 50 to 75%.

In the case of `CC(c1oc2cccc(F)c2c(=O)c1-c1cccc(F)c1)n1nc(-c2ccc(CN3CCOCC3)s2)c2c(N)ncnc21` (stereo not drawn) [Example 76, 2-(1-(4-amino-3-(5-(morpholinomethyl)thiophen-2-yl)-1H-pyrazolo[3,4-d]pyrimidin-1-yl)ethyl)-5-fluoro-3-(3-fluorophenyl)-4H-chromen-4-one], the melting point lay in the range of 193 to 196 °C. At PI3kγ, this molecule gave an inhibition at 0.1 µM of 25 to 50%. The inhibition at 1 µM at PI3kα lay in the range of 0 to 25%. In addition, the inhibition at 1 µM against PI3kβ lay within 25 to 50%. Besides, the inhibition at 0.1 µM on PI3kδ fell in the range of 25 to 50%.

For `CC(c1oc2cccc(F)c2c(=O)c1-c1cccc(F)c1)n1nc(-c2cnc3[nH]ccc3c2)c2c(N)ncnc21` (stereo not drawn) [Example 63, 2-(1-(4-amino-3-(1H-pyrrolo[2,3-b]pyridin-5-yl)-1H-pyrazolo[3,4-d]pyrimidin-1-yl)ethyl)-5-fluoro-3-(3-fluorophenyl)-4H-chromen-4-one], the melting point is 303 to 306 °C. In addition, the inhibition at 0.1 µM against PI3kγ lay in the range of 25 to 50%. The molecule also yielded an inhibition at 1 µM on PI3kα of 25 to 50%. In addition, the inhibition at 1 µM against PI3kβ fell in the range of 0 to 25%. At PI3kδ, this molecule displayed an inhibition at 0.1 µM of 25 to 50%.

Consider `CC(Nc1ncnc2[nH]cnc12)c1oc2cccc(F)c2c(=O)c1-c1cccc(F)c1` (single isomer, unassigned; (+)) [Example 68, (+)-2-(1-(9H-purin-6-ylamino)ethyl)-5-fluoro-3-(3-fluorophenyl)-4H-chromen-4-one], for which the melting point lay within 194 to 197 °C. Besides, on PI3kγ, the “% inhibition (PI3kγ) 100 nM” value was “B (B=>50 to 75%)”. Further, the inhibition at 1 µM against PI3kα fell in the range of 25 to 50%. In addition, on PI3kβ, the “% inhibition (PI3kβ) 1 uM” value is given as “B (B=>50 to 75%)”. For the same molecule, the “% inhibition (PI3kδ) 100 nM” value on PI3kδ is on record as “C (C=>25 to 50%)”.

`CC(c1oc2cccc(F)c2c(=O)c1-c1cccc(F)c1)n1cnc2c(N(C)C)ncnc21` (racemic) [Example 129, (S)/(R)-2-(1-(6-(dimethylamino)-9H-purin-9-yl)ethyl)-5-fluoro-3-(3-fluorophenyl)-4H-chromen-4-one]: the melting point lay in the range of 187 to 189 °C. For the same molecule, the “% inhibition (PI3kγ) 100 nM” value on PI3kγ is “C (C=>25 to 50%)”. The “% inhibition (PI3kα) 1 uM” value on PI3kα is listed as “D (D=0 to 25%)”. Further, the “% inhibition (PI3kβ) 1 uM” value on PI3kβ is listed as “C (C=>25 to 50%)”. For the same molecule, the “% inhibition (PI3kδ) 100 nM” value at PI3kδ is given as “D (D=0 to 25%)”.

Molecule `CNS(=O)(=O)c1ccc(-c2nn(C(C)c3oc4cccc(F)c4c(=O)c3-c3cccc(F)c3)c3ncnc(N)c23)cc1` (stereo not drawn) [Example 52, 4-(4-amino-1-(1-(5-fluoro-3-(3-fluorophenyl)-4-oxo-4H-chromen-2-yl)ethyl)-1H-pyrazolo[3,4-d]pyrimidin-3-yl)-N-methylbenzenesulfonamide] yielded a melting point of 175 to 178 °C. The inhibition at 0.3 µM at PI3kγ lay in the range of 50 to 75%. Moreover, at PI3kα, the inhibition at 1 µM was in the range of 25 to 50%. For the same molecule, the inhibition at 1 µM against PI3kβ fell in the range of 50 to 75%. On PI3kδ, the inhibition at 0.3 µM was 50 to 75%.

As to `COC(=O)c1cc(-c2nn(C(C)c3oc4cccc(F)c4c(=O)c3-c3cccc(F)c3)c3ncnc(N)c23)cs1` (stereo not drawn) [Example 61, methyl 4-(4-amino-1-(1-(5-fluoro-3-(3-fluorophenyl)-4-oxo-4H-chromen-2-yl)ethyl)-1H-pyrazolo[3,4-d]pyrimidin-3-yl)thiophene-2-carboxylate], the melting point lay within 227 to 230 °C. For the same molecule, the inhibition at 0.1 µM on PI3kγ lay in the range of 50 to 75%. Further, the inhibition at 1 µM on PI3kα fell in the range of 25 to 50%. Further, the inhibition at 1 µM against PI3kβ lay within 25 to 50%. The same molecule came in with an inhibition at 0.1 µM against PI3kδ of 25 to 50%.

Take `CC(C)Cc1ccc(-c2nn(C(C)c3oc4cccc(F)c4c(=O)c3-c3cccc(F)c3)c3ncnc(N)c23)cc1` (stereo not drawn) [Example 49, 2-(1-(4-amino-3-(4-isobutylphenyl)-1H-pyrazolo[3,4-d]pyrimidin-1-yl)ethyl)-5-fluoro-3-(3-fluorophenyl)-4H-chromen-4-one]: the melting point was in the range of 221 to 223 °C. For the same molecule, the inhibition at 0.3 µM against PI3kγ fell in the range of 50 to 75%. The inhibition at 1 µM on PI3kα is 50 to 75%. This molecule returned an inhibition at 1 µM at PI3kβ of 50 to 75%. The inhibition at 0.3 µM on PI3kδ fell in the range of 50 to 75%.

Values taken from patent publication US11020399B2, “Intermediates useful in the synthesis of compounds as modulators of protein kinases” (Rhizen Pharmaceuticals SA, priority 2011, dated 2021).
